# Publication PMC6925144, “A prospective compound screening contest identified broader inhibitors for Sirtuin 1” (Scientific Reports, 2019)
# Like-named read-outs stand apart in the source and are kept apart here. Ends that are not written are not given here.
# Key:
# [1] = biological target: T1, human SIRT1 (Homo sapiens, UniProt Q96EB6); assay: SIRT-Glo luminogenic enzymatic inhibitory assay (inhibition rate and IC50); type: biochemical
# T1 construct: host or cells: Escherichia coli M15
# T1 sequence (Q96EB6 with tags, fused parts or gaps): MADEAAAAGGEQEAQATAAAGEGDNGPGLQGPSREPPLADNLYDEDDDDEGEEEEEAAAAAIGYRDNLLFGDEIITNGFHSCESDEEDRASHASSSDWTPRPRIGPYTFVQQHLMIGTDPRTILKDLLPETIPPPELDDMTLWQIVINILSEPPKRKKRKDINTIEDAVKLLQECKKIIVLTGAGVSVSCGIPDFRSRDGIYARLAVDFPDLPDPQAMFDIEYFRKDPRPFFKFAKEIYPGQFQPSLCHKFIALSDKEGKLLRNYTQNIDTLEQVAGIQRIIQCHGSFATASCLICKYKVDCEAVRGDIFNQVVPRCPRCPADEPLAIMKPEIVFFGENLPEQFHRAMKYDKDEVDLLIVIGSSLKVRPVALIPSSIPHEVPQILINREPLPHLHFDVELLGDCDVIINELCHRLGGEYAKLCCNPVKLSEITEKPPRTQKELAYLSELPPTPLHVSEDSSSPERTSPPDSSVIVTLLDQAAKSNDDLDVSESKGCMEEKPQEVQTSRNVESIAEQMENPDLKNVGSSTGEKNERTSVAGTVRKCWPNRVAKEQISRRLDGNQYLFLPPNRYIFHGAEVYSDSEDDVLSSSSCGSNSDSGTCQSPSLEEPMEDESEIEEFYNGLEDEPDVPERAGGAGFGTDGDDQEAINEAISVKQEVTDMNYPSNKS
# Protocol: Note that the inhibitory assay was conducted with NAD^+.
# Biochemical enzymatic assay for SIRT1
# Luminogenic SIRT-Glo™ assay kit was purchased from Promega Corp. (Madison, WI; USA,
# Enzymatic activity of SIRT1 in the presence of test compounds
# the SIRT-Glo™ assay according to the manufacturer’s instructions (Promega Technical Manual for
# SIRT-Glo™ Assay and Screening System). Briefly, the enzymatic reactions were performed in assay
# SIRT1 was added to 3 ng/µL concentration to the wells containing tested compounds diluted in the
# DMSO concentration) and the reactions (9 µL per well) were pre-incubated for 30 min at ambient
# The enzymatic reactions were started by adding 9 µL of SIRT-Glo™
# reagent (proprietary composition undisclosed by the vendor) to each assay well.
# vigorous mixing using VibraTranslator (Union Scientific, USA) to ensure homogeneity, the plate
# was incubated at the ambient temperature for 40 min. The final reaction volumes per well of a
# 384-well plate were 18 µL (1.5 ng/µL SIRT1: 20 nM). Luminescence signals were measured using
# Omega PolarStar microplate reader (BMG Labtech, Ortenberg, Germany). Luminescence values
# from the control plate wells with no added enzyme were used as a baseline.
# The eight-point IC50 curve was built using 3x serial dilution
# Primary compound dilutions were performed
# in DMSO and each concentration was tested in quadruplicate. Assay data was analyzed in GraphPad
# Prism,6 using Prism's built-in sigmoidal dose-response curve-fit algorithm and default settings of the
# fit. Each error bar represents a standard deviation (SD) of inhibition rates for each concentration.
# Dose-response curve (DRC) for SIRT1 inhibition by 20 compounds under SIRT-Glo™
# assay conditions described in Section C of this supporting information. The determined IC50 value
# The eight-point IC50 curves were built using 3x serial
# dilution starting from compound concentration of 100 μM. Primary compound dilutions were
# performed in DMSO and each concentration was tested in quadruplicate. Assay data was analyzed in
# GraphPad Prism,6 using Prism's built-in sigmoidal dose-response curve-fit algorithm and default
# Each bar represents a standard deviation (SD) of inhibition rates for each concentration.
# [2] = test system: Sirtuin 1; details: cited from earlier work
# [3] = test system: human leukemia U937 cells; set-up: method as in PMID 18348515; details: cited from earlier work
# [4] = biological target: T1, human SIRT1; assay: Thermal shift assay (TSA) of Sirtuin 1 without NAD+; type: binding; set-up: TSA(without NAD+) Primary screening (TSA) TmD (K): unit not given here; details: for ΔTm, additional TSA experiment: n = 4; for thermal shift in SIRT1 melting curves, separate additions: separate additions of H3K9 (120 µM) or NAD+ (500 µM)
# Protocol: (§1) A total of 3,192 compounds extracted from the proposed lists were first screened by thermal shift assay (TSA), which determined a melting temperature shift (ΔTm) of Sirtuin 1 upon the addition of a test compound at a concentration of 10 µM (n = 1) with primary hit criteria of ΔTm > 0.45 K or ΔTm < −1.5 K. Primary hits (48 compounds) were retested in the same assay at three concentrations (5, 10, 20 µM, n = 4) for hit confirmation and for dose-dependency check. Secondary hits (41 compounds) were checked their selectivity for Sirtuin 1 based on counterscreening on unrelated protein targets (bovine carbonic anhydrase (CA) and recombinant SH2 domain of hABL1 kinase (ABL1)) at three different concentrations (5, 10, 20 µM, n = 4), which yielded 38 hit compounds, hereafter referred to as TSA hits. The TSA screening above was conducted in the absence of NAD^+. As noted, the structure of Sirtuin 1 is different in the presence of NAD^+ and substrate. The chemical profile of TSA hits found from the different conditions could be different. […] As a result, 39 TSA hits were found. Regardless of the presence of NAD^+, 29 compounds were shared in both TSA hits.
# B. Setup and validation of Protein Thermal Shift Assay.
# All tested compounds were obtained from the screening compound collection of Enamine Ltd.
# (Kiev, Ukraine). Stock solutions of the tested compounds were prepared at 10 mM in 100% DMSO and were stored at −20 °C until use. All thermal shift assay (TSA) experiments with SIRT1 protein were performed using ViiA™7 real-time PCR System equipped with 384-well heat block (Applied Biosystems, USA). General TSA methodology was adopted from the literature3-5 and experimentally modified in order to optimize conditions for measuring SIRT1 melting temperature shifts upon interaction with small molecules. To define the optimal buffer composition for the TSA procedure, a matrix of common buffers combined on a 96-well plate (Figure S3) was tested in thermal melt experiment on a 384-well plate (each buffer composition in quadruplicate). In addition, each buffer composition shown on Figure S3 was tested at two different buffering component concentrations, as listed in Table S1, resulting in two 384-well plate buffer screening experiments and the total of 192 different buffer compositions tested.
# Figure S3. Matrix plate of the buffer compositions assessed for TSA optimization.
# (1 picture or pasted object on this page, not shown here)
# (§2) Table S1. Buffer concentrations used for preparing buffer composition matrix screening plates.
# (§3) Buffer Plate 1 (mM) Plate 2 (mM)
# (§4) Selection of the optimal buffer composition was based on balancing several criteria including undistorted protein melting curve, maximized melting temperature stability of SIRT1 protein and maximized melting temperature shift induced by the acetylated histone H3K9 peptide (KQTARK(Ac)STGG, a natural substrate of SIRT1). Thermal shift experiments were done at 120 µM H3K9 in the presence of 500 µM NAD+, a co-factor of SIRT1. Separate additions of H3K9 or […]
# result, the buffer consisting of 20 mM Tris-HCl pH 8 and 50 mM NaCl was selected for the screening. Purified SIRT1 protein was pre-mixed with SYPRO Orange dye (Thermo Fischer Scientific, Cat. S6650, 5000x stock) to prepare a master mix at 400 µg/mL protein and 10x dye concentration. Tested compounds were added to the protein-dye master mix at 10 µM (1% final DMSO concentration) and incubated for 1 h at 4 °C in MicroAmp® optical 384-well reaction plates (ThermoFisher, Cat. 4309849) sealed with optical sealing film (ThermalSeal RT2, Excel Scientific, Cat. TS-RT2). The volumes of all reaction mixtures were 10 µL (4 µg SIRT1 per well). The reaction plates were then kept at ambient temperature (22-24 °C) for additional 15 minutes to ensure protein-compound interactions. Thermal scanning was performed by raising temperature to 35 °C at 1.6 °C/min without signal detection followed by 35 °C to 75 °C temperature ramp at 0.05 °C/s with […]
# [5] = test system: bovine carbonic anhydrase (CA); assay: TSA counterscreening on unrelated protein, carbonic anhydrase; type: binding; details: for ΔTm CA: without NAD+
# Protocol: as §1
# [6] = biological target: T2, recombinant SH2 domain of hABL1 kinase (ABL1) (Homo sapiens, UniProt P00519); assay: TSA counterscreening on unrelated protein, ABL1 SH2 domain; type: binding; details: without NAD+
# T2 construct: recombinant SH2 domain of hABL1 kinase (ABL1)
# T2 sequence (P00519 127-217 limits assumed): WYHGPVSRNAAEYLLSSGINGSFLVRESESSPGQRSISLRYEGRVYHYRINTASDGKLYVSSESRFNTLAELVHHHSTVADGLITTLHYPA
# Protocol: as §1
# [7] = biological target: T1, human SIRT1; assay: Thermal shift assay (TSA) of Sirtuin 1 in the presence of NAD+; type: binding; details: for ΔTm at 10 µM: n = 1, read-out: TSA(with NAD+) Primary screening (TSA) delta Tm (K); for ΔTm, additional TSA experiment: with NAD+, n = 4
# Protocol: as §1, §2, §3, §4
# result, the buffer consisting of 20 mM Tris-HCl pH 8 and 50 mM NaCl was selected for the screening. Purified SIRT1 protein was pre-mixed with SYPRO Orange dye (Thermo Fischer Scientific, Cat. S6650, 5000x stock) to prepare a master mix at 400 µg/mL protein and 10x dye concentration. Tested compounds were added to the protein-dye master mix at 10 µM (1% final DMSO concentration) and incubated for 1 h at 4 °C in MicroAmp® optical 384-well reaction plates (ThermoFisher, Cat. 4309849) sealed with optical sealing film (ThermalSeal RT2, Excel Scientific, Cat. TS-RT2). The volumes of all reaction mixtures were 10 µL (4 µg SIRT1 per well). The reaction plates were then kept at ambient temperature (22-24 °C) for additional 15 minutes to ensure protein-compound interactions. Thermal scanning was performed by raising temperature to 35 °C at 1.6 °C/min without signal detection followed by 35 °C to 75 °C temperature ramp at 0.05 °C/s with constant fluorescence intensity reading at 1 sec intervals using EX470/EM623 nm filter set. Primary screening of the whole test set of 3,192 compounds was carried out in singletons. The raw data of dye fluorescence intensity change upon protein melt were exported using the ViiA7 RUO software (Applied Biosystems/ThermoFischer Scientific). Further data visualization, curve fitting, melting temperature calculations on the raw fluorescence data were performed using custom-made Microsoft Excel scripts developed by us. The peak of the first derivative for the fluorescence curve was used to define melting temperature (Tm). Averaged Tm values for the control wells (64 wells per plate), containing only the protein, dye and 1% DMSO were used as a reference point to determine melting temperature shifts (ΔTm). Hit selection criteria was ΔTm > 0.45 °C or ΔTm < −1.5 °C. All primary hits were re-tested in the same assay at 3 concentrations (20, 10 and 5 µM, n = 4) for hit confirmation
# [8] = final Sirtuin 1 concentration 20 nM, n = 4, read-out: IC50
# [9] = 10 μM, without NAD+, read-out: ΔTm Sirtuin 1
# [10] = 10 µM, n = 1, read-out: TSA(without NAD+) Primary screening (TSA) delta Tm (K)
molecule,measurement,setting,value
Cc1nc(-c2ccc(CCNC(=O)c3ccc(NC(=O)c4cccs4)cc3)s2)cs1 [Compound Z165049452],IC50,[1]; [8],12 µM
O=C1/C(=C/c2cc(Br)c(O)c(Br)c2)CCC/C1=C\c1cc(Br)c(O)c(Br)c1 [CHEMBL260149],Inh. rate@25 μM,[2]; 25 μM,0.95 (Inh. rate@25 μM: 50%)[57]
same,effect on apoptosis induction and granulocytic differentiation,[3],high differentiating activity
O=C1NC(=S)NC(=O)C1=Cc1cn(-c2ccccc2)nc1-c1cc2ccccc2o1 [Compound Z62466600],ΔTm at 5 µM,[4]; without NAD+,0.2 °C
same,ΔTm at 10 µM,[4]; [9],0.3 °C
same,ΔTm at 20 µM,[4]; without NAD+,0.5 °C
same,"ΔTm, additional TSA experiment",[4]; without NAD+,0.87 K
same,ΔTm CA,[5]; 5 μM,0.0 K
same,ΔTm CA,[5]; 10 μM,0.0 K
same,ΔTm CA,[5]; 20 μM,0.0 K
same,ΔTm at 5 µM,[6],-0.2 °C
same,ΔTm at 10 µM,[6],0.1 °C
same,ΔTm at 20 µM,[6],0 °C
same,IC50,[1],7.1 µM
O=c1[nH]c2ccc(S(=O)(=O)NCc3cc4ccccc4[nH]3)cc2[nH]1 [Compound Z1003449802],TSA(without NAD+) Primary screening (TSA) TmD (K),"[4]; 10 µM, n = 1",49.54
same,ΔTm at 10 µM,[4]; [10],-0.07 °C
same,ΔTm at 10 µM,[7],0.68 °C
same,TSA(with NAD+) Counter Screening (Carbonic anhydrase AND Abl kinase SH2 domain) Good/Bad,"[5]; combined verdict on CA and Abl SH2, TSA flow with NAD+",Bad
O=C(CNC(=O)c1nc(-c2ccccc2)no1)Nc1ccccc1 [CHEMBL449117],Inhibition rate@200 μM,[2]; 200 μM,0.64 (Inhibition rate@200 μM: 28%)[69]
COc1ccc(CNCc2c(-c3nnc(SC(C)C)n3-c3ccccc3)n(C)c3ccc(F)cc23)cc1 [CHEMBL2436120],Inh. rate@40 μM,[2]; 40 μM,0.65 (Inh. rate@40 μM: 70%)[70]
"histone H3K9 peptide: acetylated histone H3K9 peptide (KQTARK(Ac)STGG, a natural substrate of SIRT1) (UniProt P68431 5-14, looked up, fragment) [reference compound]","thermal shift in SIRT1 melting curves, separate additions",[4],did not cause any thermal shift
same,Peptide induced thermal shift,[7]; 120 µM H3K9 in the presence of 500 µM NAD+,+1.2 °C
CC(Nc1ccc2nnnn2n1)c1ccc(Oc2ccccc2)cc1 (stereo not shown) [Compound Z1002316132],TSA(without NAD+) Primary screening (TSA) TmD (K),"[4]; 10 µM, n = 1",49.54
same,ΔTm at 10 µM,[4]; [10],-0.05 °C
same,ΔTm at 10 µM,[7],0.09 °C
NCc1nc2c(cnn2-c2ccccc2)c(=O)[nH]1 [Compound Z235344735],IC50,[1]; [8],7.6 µM
O=C1NC(=O)c2ccccc2/C1=C\NNC(=O)C12CC3CC(CC(C3)C1)C2 [Compound Z165047618],"ΔTm, additional TSA experiment",[4]; without NAD+,−0.03 K
same,IC50,"[1]; final Sirtuin 1 concentration 30 nM (compounds marked *), n = 4, read-out: IC50",13 µM
"NC(=O)c1ccc[n+]([C@@H]2O[C@H](COP(=O)([O-])OP(=O)(O)OC[C@H]3O[C@@H](n4cnc5c(N)ncnc54)[C@H](O)[C@@H]3O)[C@@H](O)[C@H]2O)c1 [NAD+, nicotinamide adenine dinucleotide]","thermal shift in SIRT1 melting curves, separate additions",[4],did not cause any thermal shift
Cc1ccc(C(=O)Nc2nc3ccc(NS(=O)(=O)c4ccc5c(c4)CCC(=O)N5)cc3s2)s1 [Compound Z605844126],IC50,[1]; [8],15 µM
CCNc1ncnc2cc(C(N)=O)sc12 [CHEMBL2332048],IC50,[2],> 50 µM
CC1(C)CC(=O)C2=C(C1)N(NC(=O)c1ccncc1)C1=C(C(=O)CC(C)(C)C1)C2c1ccccc1OCc1ccccc1 [CHEMBL1762050],Inh. rate@50 μM,[2]; 50 μM,0.60 (Inh. rate@50 μM = 70%)[71]
CC(C)(C)NS(=O)(=O)c1ccc2c(c1)Nc1ccccc1CC2 [CHEMBL3222149],Inh. rate@100 μM,[2]; 100 μM,0.65 (Inh. rate@100 μM = 10%)[72]
COc1ccc(NC(=O)CSc2nnc(Nc3ccc(SC(F)F)cc3)s2)cc1OC [Compound Z21813138],"ΔTm, additional TSA experiment",[7],0.32 K
same,IC50,[1]; [8],7.7 µM
Cc1ccc(C(CNC(=O)c2ccc(C(N)=O)cc2)N2CCCC2)o1 (stereo not shown) [Compound Z1001367730],TSA(without NAD+) Primary screening (TSA) TmD (K),"[4]; 10 µM, n = 1",49.64
same,ΔTm at 10 µM,[4]; [10],-0.08 °C
same,ΔTm at 10 µM,[7],-0.11 °C
O=C1/C(=C\c2cc(Br)cc(Br)c2O)CC/C1=C\c1cc(Br)cc(Br)c1O [Compound Z56773446],ΔTm at 5 µM,[4]; without NAD+,0.4 °C
same,ΔTm at 10 µM,[4]; [9],0.6 °C
same,ΔTm at 20 µM,[4]; without NAD+,1 °C
same,"ΔTm, additional TSA experiment",[7],−0.05 K
same,ΔTm CA,[5]; 5 μM,0.2 K
same,ΔTm CA,[5]; 10 μM,0.5 K
same,ΔTm CA,[5]; 20 μM,0.5 K
same,ΔTm at 5 µM,[6],0 °C
same,ΔTm at 10 µM,[6],0.1 °C
same,ΔTm at 20 µM,[6],0.2 °C
same,IC50,[1]; [8],4.1 µM
